Assay results taken from patent US20170190671A1, “BIS(ARYL)CATECHOL DERIVATIVES AS HERBICIDES” (E I DU PONT DE NEMOURS AND COMPANY, priority 2014, published 2017).

What was measured:
wild oat (Avenafatua) = assay: Test D preemergence; assay type: in vivo, Avena fatua; conditions: scale 0 to 100
Text: Seeds of plant species selected from bluegrass (annual bluegrass, Poa annua), blackgrass (Alopecurus myosuroides), canarygrass (Phalaris minor), chickweed (common chickweed, Stellaria media), cutleaf geranium (Geranium dissectum), galium (catchweed bedstraw, Galium aparine), downy bromegrass (Bromus tectorum), field poppy (Papaver rhoeas), field violet (Viola arvensis), green foxtail (Setaria viridis), deadnettle (henbit deadnettle, Lamium amplexicaule), Italian ryegrass (Lolium multiflorum), kochia (Kochia scoparia), lambsquarters (Chenopodium album), oilseed rape (Brassica napus), pigweed (Amaranthus retroflexus), chamomile (scentless chamomile, Matricaria inodora), Russian thistle (Salsola kali), speedwell (bird's-eye speedwell, Veronica persica), spring barley (Hordeum vulgare), spring wheat (Triticum aestivum), wild buckwheat (Polygonum convolvulus), wild mustard (Sinapis arvensis), wild oat (Avenafatua), wild radish (Raphanus raphanistrum), windgrass (Apera spica-venti), winter barley (Hordeum vulgare), and winter wheat (Triticum aestivum) were planted into a silt loam soil and treated preemergence with test chemicals formulated in a non-phytotoxic solvent mixture which included a surfactant.
At the same time, these species were planted in pots containing Redi-Earth® planting medium (Scotts Company, 14111 Scottslawn Road, Marysville, Ohio 43041) comprising spaghnum peat moss, vermiculite, wetting agent and starter nutrients and treated with postemergence applications of the test chemicals formulated in the same manner. Plants ranged in height from 2 to 18 cm (1- to 4-leaf stage). Treated plants and controls were maintained in a controlled growth environment for 14 to 21 days after which time all species were compared to controls and visually evaluated. Plant response ratings, summarized in Table D, are based on a scale of 0 to 100 where 0 is no effect and 100 is complete control. A dash (-) response means no test result.

[1] = test system: morningglory (Ipomoea spp.); assay: Test A postemergence; assay type: in vivo; conditions: 0 to 100 scale
Method in brief: (§1)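 Scoring: eye-based comparison with untreated controls, 0 for no effect through 100 for complete control, at about day 10. Treatments: directed soil spray preemergence; foliar spray postemergence on 2–10 cm plants at the one- to two-leaf stage. Medium: loam soil with sand.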

[2] = test system: velvetleaf (Abutilon theophrasti); assay: Test A postemergence; assay type: in vivo; conditions: 0 to 100 scale
Method in brief: as §1

[3] = test system: large (Lg) crabgrass (Digitaria sanguinalis); assay: Test A postemergence; assay type: in vivo; conditions: 0 to 100 scale
Method in brief: as §1

kochia (Kochia scoparia) = assay: Test E preemergence; assay type: in vivo; conditions: scale 0 to 100
Method in brief: (§2)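 Test chemicals, formulated in a non-phytotoxic solvent with surfactant, are applied to silt loam soil after sowing or sprayed over young plants (1–4 leaves) in potting medium. Plants are then kept in a greenhouse for 14 to 21 days and scored 0–100 for control.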

[4] = test system: velvetleaf (Abutilon theophrasti); assay: Test E preemergence; assay type: in vivo; conditions: scale 0 to 100
Method in brief: as §2

[5] = test system: field bindweed (Convolvulus arvensis); assay: Test E preemergence; assay type: in vivo; conditions: scale 0 to 100
Method in brief: as §2

[6] = test system: johnsongrass (Sorghum halepense); assay: Test E preemergence; assay type: in vivo; conditions: scale 0 to 100
Method in brief: as §2

[7] = test system: Brazilian crabgrass (Digitaria horizontalis); assay: Test E preemergence; assay type: in vivo; conditions: scale 0 to 100
Method in brief: as §2

[8] = test system: wild poinsettia (Euphorbia heterophylla); assay: Test E preemergence; assay type: in vivo; conditions: scale 0 to 100
Method in brief: as §2

[9] = test system: horseweed (Conyza canadensis); assay: Test E preemergence; assay type: in vivo; conditions: scale 0 to 100
Method in brief: as §2

| SMILES | Plant response rating, Oat, Wild (wild oat (Avenafatua); 16 g ai/ha) | Plant response rating, Oat, Wild (wild oat (Avenafatua); 31 g ai/ha) | Plant response rating, Oat, Wild (wild oat (Avenafatua); 62 g ai/ha) | Plant response rating, Oat, Wild (wild oat (Avenafatua); 125 g ai/ha) | Plant response rating, Kochia (kochia (Kochia scoparia); 16 g ai/ha) | Plant response rating, Kochia (kochia (Kochia scoparia); 31 g ai/ha) | Plant response rating, Kochia (kochia (Kochia scoparia); 62 g ai/ha) | Plant response rating, Kochia (kochia (Kochia scoparia); 125 g ai/ha) | Plant response rating, Velvetleaf ([4]; 16 g ai/ha) | Plant response rating, Velvetleaf ([4]; 31 g ai/ha) | Plant response rating, Velvetleaf ([4]; 62 g ai/ha) | Plant response rating, Velvetleaf ([4]; 125 g ai/ha) | Plant response rating, Field Bindweed ([5]; 16 g ai/ha) | Plant response rating, Field Bindweed ([5]; 31 g ai/ha) | Plant response rating, Field Bindweed ([5]; 62 g ai/ha) | Plant response rating, Field Bindweed ([5]; 125 g ai/ha) | Plant response rating, Johnsongrass ([6]; 31 g ai/ha) | Plant response rating, Johnsongrass ([6]; 125 g ai/ha) | Plant response rating, Crabgrass, Brazil ([7]; 31 g ai/ha) | Plant response rating, Crabgrass, Brazil ([7]; 125 g ai/ha) | other results |
| --- | --- | --- | --- | --- | --- | --- | --- | --- | --- | --- | --- | --- | --- | --- | --- | --- | --- | --- | --- | --- | --- |
| N#Cc1cccc(Oc2ncc(Cl)cn2)c1Oc1ncc(Cl)cn1 [Compound 3, 2,3-bis[(5-chloro-2-pyrimidinyl)oxy]benzonitrile] | 0 | 0 | 0 | 50 |  |  |  |  |  |  |  |  |  |  |  |  |  |  |  |  | Plant response rating, Morningglory ([1]; 125 g ai/ha): 100; Plant response rating, Morningglory ([1]; 500 g ai/ha): 100; Plant response rating, Velvetleaf ([2]; 125 g ai/ha): 100; Plant response rating, Velvetleaf ([2]; 500 g ai/ha): 100; Plant response rating, Crabgrass, Large ([3]; 125 g ai/ha): 90; Plant response rating, Crabgrass, Large ([3]; 500 g ai/ha): 90 |
| Clc1cnc(Oc2cccc(Br)c2Oc2ncc(Cl)cn2)nc1 [Compound 19, 2,2′-[[3-bromo-1,2-phenylene]bis(oxy)]bis[5-chloropyrimidine]] |  |  |  |  | 35 | 75 | 98 | 100 | 0 | 0 | 50 | 100 | 0 | 0 | 0 | 10 | 0 | 100 | 40 | 100 | Plant response rating, Johnsongrass ([6]; 16 g ai/ha): 0; Plant response rating, Johnsongrass ([6]; 62 g ai/ha): 50; Plant response rating, Crabgrass, Brazil ([7]; 16 g ai/ha): 0; Plant response rating, Crabgrass, Brazil ([7]; 62 g ai/ha): 100; Plant response rating, Poinsettia, Wild ([8]; 16 g ai/ha): 0; Plant response rating, Poinsettia, Wild ([8]; 31 g ai/ha): 0; Plant response rating, Poinsettia, Wild ([8]; 62 g ai/ha): 15; Plant response rating, Poinsettia, Wild ([8]; 125 g ai/ha): 70; Plant response rating, Morningglory ([1]; 125 g ai/ha): 70; Plant response rating, Morningglory ([1]; 500 g ai/ha): 100; Plant response rating, Velvetleaf ([2]; 125 g ai/ha): 100; Plant response rating, Velvetleaf ([2]; 500 g ai/ha): 100; Plant response rating, Crabgrass, Large ([3]; 125 g ai/ha): 70; Plant response rating, Crabgrass, Large ([3]; 500 g ai/ha): 90 |
| Fc1cccc(Oc2ncc(Cl)cn2)c1Oc1ncc(Cl)cn1 [Compound 21, 2,2′-[[3-fluoro-1,2-phenylene]bis(oxy)]bis[5-chloropyrimidine]] |  |  |  |  | 20 | 50 | 75 | 100 | 80 | 70 | 100 | 100 | 0 | 0 | 15 | 40 | 30 | 100 | 65 | 100 | Plant response rating, Johnsongrass ([6]; 16 g ai/ha): 0; Plant response rating, Johnsongrass ([6]; 62 g ai/ha): 65; Plant response rating, Crabgrass, Brazil ([7]; 16 g ai/ha): 0; Plant response rating, Crabgrass, Brazil ([7]; 62 g ai/ha): 100; Plant response rating, Poinsettia, Wild ([8]; 16 g ai/ha): 0; Plant response rating, Poinsettia, Wild ([8]; 31 g ai/ha): 10; Plant response rating, Poinsettia, Wild ([8]; 62 g ai/ha): 50; Plant response rating, Poinsettia, Wild ([8]; 125 g ai/ha): 60; Plant response rating, Morningglory ([1]; 125 g ai/ha): 90; Plant response rating, Morningglory ([1]; 500 g ai/ha): 100; Plant response rating, Velvetleaf ([2]; 125 g ai/ha): 90; Plant response rating, Velvetleaf ([2]; 500 g ai/ha): 100; Plant response rating, Crabgrass, Large ([3]; 125 g ai/ha): 80; Plant response rating, Crabgrass, Large ([3]; 500 g ai/ha): 90 |
| Fc1cnc(Oc2c(Br)cccc2Oc2ncc(Cl)cn2)nc1 [Compound 22] | 5 | 10 | 20 | 25 |  |  |  |  |  |  |  |  |  |  |  |  |  |  |  |  |  |
| Fc1cnc(Oc2c(F)cccc2Oc2ncc(Cl)cn2)nc1 [Compound 23] | 5 | 15 | 70 | 98 |  |  |  |  |  |  |  |  |  |  |  |  |  |  |  |  |  |
| FC(F)(F)c1cnc(Oc2c(Br)cccc2Oc2ncc(Cl)cn2)nc1 [Compound 24] | 0 | 15 | 25 | 75 |  |  |  |  |  |  |  |  |  |  |  |  |  |  |  |  |  |
| Fc1ccc(F)c(Oc2ncc(Cl)cn2)c1Oc1ncc(Cl)cn1 [Compound 34, 2,2′-[(3,6-difluoro-1,2-phenylene)bis(oxy)]bis[5-chloropyrimidine]] |  |  |  |  | 0 | 95 | 100 | 100 | 30 | 100 | 100 | 100 | 0 | 0 | 0 | 0 |  |  | 35 | 98 | Plant response rating, Horseweed ([9]; 16 g ai/ha): 0; Plant response rating, Horseweed ([9]; 31 g ai/ha): 0; Plant response rating, Horseweed ([9]; 62 g ai/ha): 0; Plant response rating, Horseweed ([9]; 125 g ai/ha): 0; Plant response rating, Crabgrass, Brazil ([7]; 16 g ai/ha): 0; Plant response rating, Crabgrass, Brazil ([7]; 62 g ai/ha): 95; Plant response rating, Poinsettia, Wild ([8]; 16 g ai/ha): 0; Plant response rating, Poinsettia, Wild ([8]; 31 g ai/ha): 10; Plant response rating, Poinsettia, Wild ([8]; 62 g ai/ha): 20; Plant response rating, Poinsettia, Wild ([8]; 125 g ai/ha): 50 |
| N#Cc1cccc(Oc2ncc(Cl)cn2)c1Oc1ncc(C(F)(F)F)cn1 [Compound 38, 3-[(5-chloro-2-pyrimidinyl)oxy]-2-[[5-(trifluoromethyl)-2-pyrimidinyl]oxy]-benzonitrile] |  |  |  |  | 80 | 98 | 100 | 100 | 20 | 65 | 85 | 100 | 35 | 70 | 95 | 65 | 0 | 95 | 98 | 100 | Plant response rating, Horseweed ([9]; 16 g ai/ha): 0; Plant response rating, Horseweed ([9]; 31 g ai/ha): 0; Plant response rating, Horseweed ([9]; 62 g ai/ha): 100; Plant response rating, Horseweed ([9]; 125 g ai/ha): 98; Plant response rating, Johnsongrass ([6]; 16 g ai/ha): 0; Plant response rating, Johnsongrass ([6]; 62 g ai/ha): 100; Plant response rating, Crabgrass, Brazil ([7]; 16 g ai/ha): 80; Plant response rating, Crabgrass, Brazil ([7]; 62 g ai/ha): 100 |
| Fc1cccc(Oc2ncc(Cl)cn2)c1Oc1ncc(C(F)(F)F)cn1 [Compound 43, 5-chloro-2-[5-fluoro-6-[[5-(trifluoromethyl)-2-pyrimidinyl]oxy]phenoxy]pyrimidine] |  |  |  |  |  | 98 |  | 100 |  | 70 |  | 100 |  | 20 |  | 50 | 90 | 100 | 95 | 100 | Plant response rating, Poinsettia, Wild ([8]; 31 g ai/ha): 65; Plant response rating, Poinsettia, Wild ([8]; 125 g ai/ha): 100 |
